Tests used:
CK2 in 786-O cells = settings: read-out: IC50 CK2 activity in cell extracts
[1] = molecular target: ABL1(E255K)-phosphorylated (Homo sapiens, UniProt P00519, E255K); experiment: biochemical; settings: read-out: %Ctrl @ 2000nM
[2] = molecular target: ABL1(F317I)-phosphorylated (Homo sapiens, UniProt P00519, F317I); experiment: biochemical; settings: read-out: %Ctrl @ 2000nM
[3] = molecular target: ABL1(H396P)-phosphorylated (Homo sapiens, UniProt P00519, H396P); experiment: biochemical; settings: read-out: %Ctrl @ 2000nM
[4] = molecular target: ABL1(T315I)-phosphorylated (Homo sapiens, UniProt P00519, T315I); experiment: biochemical; settings: read-out: %Ctrl @ 2000nM
ACVR1B = ACVR1B (Homo sapiens, UniProt P36896); experiment: biochemical; settings: read-out: %Ctrl @ 2000nM
AKT3 = AKT3 (Homo sapiens, UniProt Q9Y243); experiment: biochemical; settings: read-out: %Ctrl @ 2000nM
ALK(C1156Y) = ALK(C1156Y) (Homo sapiens, UniProt Q9UM73, C1156Y); experiment: biochemical; settings: read-out: %Ctrl @ 2000nM
AXL = AXL (Homo sapiens, UniProt P30530); experiment: biochemical; settings: read-out: %Ctrl @ 2000nM
Chain of AXL (P30530 26-894): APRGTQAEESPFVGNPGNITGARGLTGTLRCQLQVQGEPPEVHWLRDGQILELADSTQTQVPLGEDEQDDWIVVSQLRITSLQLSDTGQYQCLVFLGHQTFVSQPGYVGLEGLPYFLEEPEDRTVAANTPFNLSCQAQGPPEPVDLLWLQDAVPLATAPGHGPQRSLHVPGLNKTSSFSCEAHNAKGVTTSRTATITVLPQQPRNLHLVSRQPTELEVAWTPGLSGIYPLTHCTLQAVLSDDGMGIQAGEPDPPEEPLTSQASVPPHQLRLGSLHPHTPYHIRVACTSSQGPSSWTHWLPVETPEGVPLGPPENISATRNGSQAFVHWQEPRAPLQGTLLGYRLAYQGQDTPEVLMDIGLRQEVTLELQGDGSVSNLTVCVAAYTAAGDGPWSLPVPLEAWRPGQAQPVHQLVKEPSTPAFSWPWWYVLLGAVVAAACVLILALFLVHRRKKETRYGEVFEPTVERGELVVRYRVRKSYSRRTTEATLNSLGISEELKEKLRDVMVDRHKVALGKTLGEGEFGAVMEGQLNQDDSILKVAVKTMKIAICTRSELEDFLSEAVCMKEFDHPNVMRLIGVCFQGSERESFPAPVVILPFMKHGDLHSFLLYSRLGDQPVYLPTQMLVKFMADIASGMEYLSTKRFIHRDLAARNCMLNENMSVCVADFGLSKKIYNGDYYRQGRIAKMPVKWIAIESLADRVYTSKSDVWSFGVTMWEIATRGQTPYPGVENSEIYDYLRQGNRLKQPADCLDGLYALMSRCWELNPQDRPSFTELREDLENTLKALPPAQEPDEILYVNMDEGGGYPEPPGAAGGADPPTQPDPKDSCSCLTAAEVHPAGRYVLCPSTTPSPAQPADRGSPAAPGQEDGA

BRK = BRK (Homo sapiens, UniProt Q13882); experiment: biochemical; settings: read-out: %Ctrl @ 2000nM
Chain of BRK (Q13882 whole entry): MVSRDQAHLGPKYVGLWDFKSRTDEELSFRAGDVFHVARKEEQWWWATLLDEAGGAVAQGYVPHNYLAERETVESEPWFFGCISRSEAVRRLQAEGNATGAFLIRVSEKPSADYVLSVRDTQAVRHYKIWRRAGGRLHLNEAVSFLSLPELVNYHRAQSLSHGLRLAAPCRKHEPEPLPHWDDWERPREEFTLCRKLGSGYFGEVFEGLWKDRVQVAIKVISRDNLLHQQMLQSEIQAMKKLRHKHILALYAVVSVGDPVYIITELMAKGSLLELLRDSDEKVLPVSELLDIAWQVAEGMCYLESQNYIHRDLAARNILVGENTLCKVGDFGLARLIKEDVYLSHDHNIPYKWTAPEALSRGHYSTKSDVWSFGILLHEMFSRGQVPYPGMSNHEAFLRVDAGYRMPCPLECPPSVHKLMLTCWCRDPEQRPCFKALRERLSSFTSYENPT

CAMK4 = CAMK4 (Homo sapiens, UniProt Q16566); experiment: biochemical; settings: read-out: %Ctrl @ 2000nM
CDKL1 = CDKL1 (Homo sapiens, UniProt Q00532); experiment: biochemical; settings: read-out: %Ctrl @ 2000nM
Chain of CDKL1 (Q00532 whole entry): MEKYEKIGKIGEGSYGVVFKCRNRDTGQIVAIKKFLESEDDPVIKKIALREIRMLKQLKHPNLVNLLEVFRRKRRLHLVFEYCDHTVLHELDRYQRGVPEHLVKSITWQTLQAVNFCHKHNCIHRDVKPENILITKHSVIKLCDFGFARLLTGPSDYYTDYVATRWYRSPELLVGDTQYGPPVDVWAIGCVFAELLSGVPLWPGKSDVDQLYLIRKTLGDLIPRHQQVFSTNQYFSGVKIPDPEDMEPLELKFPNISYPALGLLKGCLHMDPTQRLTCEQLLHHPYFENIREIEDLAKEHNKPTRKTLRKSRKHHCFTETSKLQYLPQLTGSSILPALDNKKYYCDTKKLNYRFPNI

DYRK1B = DYRK1B (Homo sapiens, UniProt Q9Y463); experiment: biochemical; settings: read-out: %Ctrl @ 2000nM
ERK1 = ERK1 (Homo sapiens, UniProt P27361); experiment: biochemical; settings: read-out: %Ctrl @ 2000nM
FAK = FAK (Homo sapiens, UniProt Q05397); experiment: biochemical; settings: read-out: %Ctrl @ 2000nM
FGFR3 = FGFR3 (Homo sapiens, UniProt P22607); experiment: biochemical; settings: read-out: %Ctrl @ 2000nM
Chain of FGFR3 (P22607 23-806): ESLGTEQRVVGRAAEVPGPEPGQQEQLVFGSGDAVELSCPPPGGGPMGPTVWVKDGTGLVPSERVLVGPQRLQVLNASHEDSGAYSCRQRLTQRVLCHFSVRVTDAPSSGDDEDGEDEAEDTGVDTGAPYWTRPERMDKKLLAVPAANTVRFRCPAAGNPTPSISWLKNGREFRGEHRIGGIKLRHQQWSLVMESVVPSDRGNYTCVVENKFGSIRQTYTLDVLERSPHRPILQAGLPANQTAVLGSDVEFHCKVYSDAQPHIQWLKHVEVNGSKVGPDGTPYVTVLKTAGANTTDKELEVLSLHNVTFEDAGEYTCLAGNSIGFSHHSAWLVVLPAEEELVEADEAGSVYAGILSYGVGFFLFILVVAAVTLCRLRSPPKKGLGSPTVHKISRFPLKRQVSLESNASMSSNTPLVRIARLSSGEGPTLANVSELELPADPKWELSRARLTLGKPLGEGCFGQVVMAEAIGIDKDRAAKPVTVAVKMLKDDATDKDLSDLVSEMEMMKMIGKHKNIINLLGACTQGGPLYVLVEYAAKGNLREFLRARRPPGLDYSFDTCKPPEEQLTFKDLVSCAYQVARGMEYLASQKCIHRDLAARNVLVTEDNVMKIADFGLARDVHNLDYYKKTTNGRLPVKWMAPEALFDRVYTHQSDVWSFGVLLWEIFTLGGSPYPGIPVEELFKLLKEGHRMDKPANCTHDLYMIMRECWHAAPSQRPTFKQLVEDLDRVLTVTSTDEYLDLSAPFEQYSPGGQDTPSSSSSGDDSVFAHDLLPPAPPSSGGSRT

FLT3(D835V) = FLT3(D835V) (Homo sapiens, UniProt P36888, D835V); experiment: biochemical; settings: read-out: %Ctrl @ 2000nM
GAK = GAK (Homo sapiens, UniProt O14976); experiment: biochemical; settings: read-out: %Ctrl @ 2000nM
HIPK3 = HIPK3 (Homo sapiens, UniProt Q9H422); experiment: biochemical; settings: read-out: %Ctrl @ 2000nM
ICK = ICK (Homo sapiens, UniProt Q9UPZ9); experiment: biochemical; settings: read-out: %Ctrl @ 2000nM
Chain of ICK (Q9UPZ9 whole entry): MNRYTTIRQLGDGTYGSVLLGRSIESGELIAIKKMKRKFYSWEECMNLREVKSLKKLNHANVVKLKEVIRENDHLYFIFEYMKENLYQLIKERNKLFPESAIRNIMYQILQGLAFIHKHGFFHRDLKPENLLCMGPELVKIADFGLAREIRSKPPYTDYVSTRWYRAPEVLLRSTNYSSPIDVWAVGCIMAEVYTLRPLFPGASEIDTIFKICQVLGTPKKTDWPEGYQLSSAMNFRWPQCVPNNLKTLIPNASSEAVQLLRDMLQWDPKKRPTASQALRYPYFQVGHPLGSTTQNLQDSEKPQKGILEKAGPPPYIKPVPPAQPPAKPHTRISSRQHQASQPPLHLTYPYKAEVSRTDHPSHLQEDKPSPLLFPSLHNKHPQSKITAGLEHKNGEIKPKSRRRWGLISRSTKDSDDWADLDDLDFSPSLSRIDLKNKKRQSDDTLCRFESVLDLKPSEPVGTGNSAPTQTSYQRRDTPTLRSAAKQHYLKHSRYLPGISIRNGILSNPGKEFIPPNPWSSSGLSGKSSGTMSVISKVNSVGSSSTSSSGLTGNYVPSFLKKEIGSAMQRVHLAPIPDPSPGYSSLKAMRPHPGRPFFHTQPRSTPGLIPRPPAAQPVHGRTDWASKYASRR

ITK = ITK (Homo sapiens, UniProt Q08881); experiment: biochemical; settings: read-out: %Ctrl @ 2000nM
[5] = molecular target: JAK1(JH2domain-pseudokinase) (Homo sapiens, UniProt P23458); experiment: biochemical; settings: read-out: %Ctrl @ 2000nM
JNK2 = JNK2 (Homo sapiens, UniProt P45984); experiment: biochemical; settings: read-out: %Ctrl @ 2000nM
LRRK2 = LRRK2 (Homo sapiens, UniProt Q5S007); experiment: biochemical; settings: read-out: %Ctrl @ 2000nM
MET(M1250T) = MET(M1250T) (Homo sapiens, UniProt P08581, M1250T); experiment: biochemical; settings: read-out: %Ctrl @ 2000nM
MKNK1 = MKNK1 (Homo sapiens, UniProt Q9BUB5); experiment: biochemical; settings: read-out: %Ctrl @ 2000nM
Chain of MKNK1 (Q9BUB5 whole entry): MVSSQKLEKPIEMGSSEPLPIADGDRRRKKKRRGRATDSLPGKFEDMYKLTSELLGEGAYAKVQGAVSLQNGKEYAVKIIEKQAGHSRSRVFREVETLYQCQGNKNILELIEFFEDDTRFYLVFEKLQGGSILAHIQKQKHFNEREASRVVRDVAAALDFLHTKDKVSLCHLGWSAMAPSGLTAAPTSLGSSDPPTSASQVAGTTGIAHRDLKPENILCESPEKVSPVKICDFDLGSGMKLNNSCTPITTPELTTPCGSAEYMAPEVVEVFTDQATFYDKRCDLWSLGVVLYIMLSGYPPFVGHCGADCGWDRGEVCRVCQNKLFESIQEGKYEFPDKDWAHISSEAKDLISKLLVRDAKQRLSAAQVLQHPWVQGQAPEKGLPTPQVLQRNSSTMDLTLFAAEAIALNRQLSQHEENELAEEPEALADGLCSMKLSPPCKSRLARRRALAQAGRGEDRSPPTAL

MLK2 = MLK2 (Homo sapiens, UniProt Q02779); experiment: biochemical; settings: read-out: %Ctrl @ 2000nM
MYLK2 = MYLK2 (Homo sapiens, UniProt Q9H1R3); experiment: biochemical; settings: read-out: %Ctrl @ 2000nM
p38-gamma = p38-gamma (Homo sapiens, UniProt P53778); experiment: biochemical; settings: read-out: %Ctrl @ 2000nM
PAK1 = PAK1 (Homo sapiens, UniProt Q13153); experiment: biochemical; settings: read-out: %Ctrl @ 2000nM
PDGFRA = PDGFRA (Homo sapiens, UniProt P16234); experiment: biochemical; settings: read-out: %Ctrl @ 2000nM
Chain of PDGFRA (P16234 24-1089): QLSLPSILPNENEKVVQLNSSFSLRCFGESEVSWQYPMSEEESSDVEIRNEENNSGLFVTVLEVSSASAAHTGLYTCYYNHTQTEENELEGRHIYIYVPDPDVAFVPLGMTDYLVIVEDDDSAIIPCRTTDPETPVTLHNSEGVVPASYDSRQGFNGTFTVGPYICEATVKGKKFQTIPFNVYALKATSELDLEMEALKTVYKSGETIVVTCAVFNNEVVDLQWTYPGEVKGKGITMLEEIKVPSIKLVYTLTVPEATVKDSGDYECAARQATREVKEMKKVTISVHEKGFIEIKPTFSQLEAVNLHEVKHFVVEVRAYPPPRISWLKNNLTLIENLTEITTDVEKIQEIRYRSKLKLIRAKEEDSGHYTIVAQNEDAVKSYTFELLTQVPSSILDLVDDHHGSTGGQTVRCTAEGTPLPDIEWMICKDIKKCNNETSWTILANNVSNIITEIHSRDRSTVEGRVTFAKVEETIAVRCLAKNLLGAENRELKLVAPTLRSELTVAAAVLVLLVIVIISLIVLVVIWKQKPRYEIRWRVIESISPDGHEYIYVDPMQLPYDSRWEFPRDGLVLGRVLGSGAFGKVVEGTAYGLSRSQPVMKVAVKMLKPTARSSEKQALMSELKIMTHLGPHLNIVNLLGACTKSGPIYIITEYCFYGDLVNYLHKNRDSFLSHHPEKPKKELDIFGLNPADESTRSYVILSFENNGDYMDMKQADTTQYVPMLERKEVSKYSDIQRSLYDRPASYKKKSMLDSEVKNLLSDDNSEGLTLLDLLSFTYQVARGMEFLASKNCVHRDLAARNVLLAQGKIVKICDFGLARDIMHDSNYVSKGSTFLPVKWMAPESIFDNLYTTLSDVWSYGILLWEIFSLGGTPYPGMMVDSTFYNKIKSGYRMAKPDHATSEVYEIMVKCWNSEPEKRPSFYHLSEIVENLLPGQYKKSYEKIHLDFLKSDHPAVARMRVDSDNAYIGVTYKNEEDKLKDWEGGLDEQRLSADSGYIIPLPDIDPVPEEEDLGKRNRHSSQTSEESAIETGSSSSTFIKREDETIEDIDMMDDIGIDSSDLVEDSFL

PIK3CA(I800L) = PIK3CA(I800L) (Homo sapiens, UniProt P42336, I800L); experiment: biochemical; settings: read-out: %Ctrl @ 2000nM
PRKD1 = PRKD1 (Homo sapiens, UniProt Q15139); experiment: biochemical; settings: read-out: %Ctrl @ 2000nM
PRKD3 = PRKD3 (Homo sapiens, UniProt O94806); experiment: biochemical; settings: read-out: %Ctrl @ 2000nM
PRKR = PRKR (Homo sapiens, UniProt P19525); experiment: biochemical; settings: read-out: %Ctrl @ 2000nM
RIPK2 = RIPK2 (Homo sapiens, UniProt O43353); experiment: biochemical; settings: read-out: %Ctrl @ 2000nM
[6] = molecular target: RPS6KA4(Kin.Dom.1-N-terminal) (Homo sapiens, UniProt O75676); experiment: biochemical; settings: read-out: %Ctrl @ 2000nM
SBK1 = SBK1 (Homo sapiens, UniProt Q52WX2); experiment: biochemical; settings: read-out: %Ctrl @ 2000nM
Chain of SBK1 (Q52WX2 whole entry): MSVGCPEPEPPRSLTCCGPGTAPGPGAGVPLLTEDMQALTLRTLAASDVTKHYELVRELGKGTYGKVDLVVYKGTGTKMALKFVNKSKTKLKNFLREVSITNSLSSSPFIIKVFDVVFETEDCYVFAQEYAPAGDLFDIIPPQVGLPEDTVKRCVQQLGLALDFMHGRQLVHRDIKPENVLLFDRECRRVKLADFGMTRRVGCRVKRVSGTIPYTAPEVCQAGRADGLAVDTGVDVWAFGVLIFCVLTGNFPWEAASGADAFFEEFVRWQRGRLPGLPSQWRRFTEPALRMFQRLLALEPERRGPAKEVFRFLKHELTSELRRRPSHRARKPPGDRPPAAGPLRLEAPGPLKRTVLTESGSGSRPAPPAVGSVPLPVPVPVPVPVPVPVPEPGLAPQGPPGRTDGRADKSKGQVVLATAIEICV

SRPK2 = SRPK2 (Homo sapiens, UniProt P78362); experiment: biochemical; settings: read-out: %Ctrl @ 2000nM
TAOK3 = TAOK3 (Homo sapiens, UniProt Q9H2K8); experiment: biochemical; settings: read-out: %Ctrl @ 2000nM
[7] = molecular target: TYK2(JH2domain-pseudokinase) (Homo sapiens, UniProt P29597); experiment: biochemical; settings: read-out: %Ctrl @ 2000nM
YSK4 = YSK4 (Homo sapiens, UniProt Q56UN5); experiment: biochemical; settings: read-out: %Ctrl @ 2000nM

## CC(C)COC(=O)c1[nH]c2ccc(F)cc2c1-c1cn(CC2CCN(CCNS(=O)(=O)c3ccc(CC(C)C)cc3)CC2)nn1 [AB668, isobutyl 5-fluoro-3-(1-((1-(2-((4-isobutylphenyl)sulfonamido)ethyl)piperidin-4-yl)methyl)-1H-1,2,3-triazol-4-yl)-1H-indole-2-carboxylate]
CK2 in 786-O cells
  IC50: 340 ± 70 nM
[1]
  remaining activity at 2 µM: 67%
[2]
  remaining activity at 2 µM: 96%
[3]
  remaining activity at 2 µM: 80%
[4]
  remaining activity at 2 µM: 79%
ACVR1B
  remaining activity at 2 µM: 75%
AKT3
  remaining activity at 2 µM: 92%
ALK(C1156Y)
  remaining activity at 2 µM: 81%
AXL
  remaining activity at 2 µM: 100%
BRK
  remaining activity at 2 µM: 72%
CAMK4
  remaining activity at 2 µM: 100%
CDKL1
  remaining activity at 2 µM: 86%
DYRK1B
  remaining activity at 2 µM: 83%
ERK1
  remaining activity at 2 µM: 75%
FAK
  remaining activity at 2 µM: 91%
FGFR3
  remaining activity at 2 µM: 89%
FLT3(D835V)
  remaining activity at 2 µM: 94%
GAK
  remaining activity at 2 µM: 99%
HIPK3
  remaining activity at 2 µM: 98%
ICK
  remaining activity at 2 µM: 100%
ITK
  remaining activity at 2 µM: 93%
[5]
  remaining activity at 2 µM: 93%
JNK2
  remaining activity at 2 µM: 92%
LRRK2
  remaining activity at 2 µM: 65%
MET(M1250T)
  remaining activity at 2 µM: 90%
MKNK1
  remaining activity at 2 µM: 63%
MLK2
  remaining activity at 2 µM: 73%
MYLK2
  remaining activity at 2 µM: 96%
p38-gamma
  remaining activity at 2 µM: 74%
PAK1
  remaining activity at 2 µM: 99%
PDGFRA
  remaining activity at 2 µM: 86%
PIK3CA(I800L)
  remaining activity at 2 µM: 98%
PRKD1
  remaining activity at 2 µM: 100%
PRKD3
  remaining activity at 2 µM: 100%
PRKR
  remaining activity at 2 µM: 75%
RIPK2
  remaining activity at 2 µM: 83%
[6]
  remaining activity at 2 µM: 88%
SBK1
  remaining activity at 2 µM: 88%
SRPK2
  remaining activity at 2 µM: 98%
TAOK3
  remaining activity at 2 µM: 100%
[7]
  remaining activity at 2 µM: 100%
YSK4
  remaining activity at 2 µM: 100%

— PMC10838953
